Patent publication US8703224B2, “Method to improve water solubility of Rebaudioside D” (PepsiCo, Inc., priority 2009, dated 2014)

Legend:
[1] = cited from earlier work
[2] = Differential Scanning calorimetry (DSC); settings: 40°-300° C., heating at 10° C./min
[3] = Oven heating for two hours, mass loss and HPLC check for decomposition; type: physicochemical; settings: for Net Loss (weight %) / Net Loss: oven, two hours; for Net Loss: 50 g sample
Experimental: An experiment was performed on four samples (50 g each) of commercially available Reb D. The samples were each heated in an oven for two hours at one of four temperatures: 70°, 80°, 90° and 100° C. The samples were then immediately cooled and weighed to determine any loss in mass. Each sample, including the initial sample, was analyzed using gradient reversed-phase High Performance Liquid Chromatography (HPLC) with Evaporative Light Scattering Detection (ELSD) and Ultra-Violet (UV) detection methods to determine if any significant decomposition occurred.

[4] = Dissolution in water with heating, then cooling to room temperature (stable solution test); type: physicochemical
Experimental: In at least certain exemplary embodiments, such supersaturated aqueous solution has a stable solution of Reb D at a concentration greater than 500 ppm, e.g., 1500 ppm or 3000 ppm. As used here and in the appended claims, a “stable solution” is defined as a solution prepared and stored according to the methods described here where the Reb D remains in solution for a period of time of at least 24 hours at room temperature without forming a precipitate.

[5] = Water solubility experiment, anhydrous versus non-anhydrous form, solubility versus temperature; type: physicochemical; settings: after cooling to room temperature and sitting on a bench-top overnight
Experimental: Equal starting amounts of both substances were placed in equal volumes of water in side-by-side beakers equipped with overhead stirrers and hot plates. As the temperature of the water solution increased and the starting amounts were dissolved, incremental quantities of additional respective sweetener were added.

[6] = Thermal Gravimetric Analysis (TGA); type: physicochemical; settings: 2 mg sample, 10° C./min
Experimental: In a complementary experiment, commercially available Reb D was examined by Thermal Gravimetric Analysis (TGA). TGA is a type of test that may be performed to determine changes in weight as a function of temperature. The method may be used to determine loss of water, or any other volatiles in a compound as it is heated. A derivative weight loss curve can be used to determine at what temperature weight loss is most apparent. A 2 mg sample was placed into a sample boat on a microgram balance (accurate to +/−1 μg) and heated while monitoring the mass. The temperature was increased at 10° C./min while continuing to monitor the mass and graphing the result as a percentage of the original mass. The results from this analysis are shown in FIG. 2 and indicate mass loss beginning at about 50° C. and continuing to about 104° C. and then remaining stable until reaching approximately 260° C., whereupon a large loss of mass was recorded, which corresponds to the decomposition temperature.

[7] = HPLC (ELSD/UV) analysis after heating at 100° C. for 120 hours; type: physicochemical; settings: after heating 120 hours at 100° C.
Experimental: It was discovered that upon heating commercially available Reb D, believed to be a non-anhydrous form of Reb D (i.e., hydrate), compound in an oven to a temperature of 100° C. for 120 hours, a thermally stable anhydrous Reb D product was obtained. […] The top graph indicates ELSD detection, and the bottom graph indicates UV detection results taken at a wavelength of 210 nm.
Additional HPLC chromatogram analysis was performed using both an anhydrous sample of Reb D (i.e., after the sample had undergone the process of heating for 120 hours at 100° C.) and a sample that had undergone heating for 24 hours. […] A decomposition peak estimated to be in the range of 2% of the total mass was found in the analysis results from the anhydrous Reb D sample, but its structure was not determined.

With C=C1C[C@@]23CC[C@H]4[C@@](C)(CCC[C@@]4(C)C(=O)O[C@@H]4O[C@H](CO)[C@@H](O)[C@H](O)[C@H]4O)[C@@H]2CC[C@]1(O[C@@H]1O[C@H](CO)[C@@H](O)[C@H](O)[C@H]1O[C@@H]1O[C@H](CO)[C@@H](O)[C@H](O)[C@H]1O)C3 [Stevioside] as the molecule, how does the solubility in water ([1]; in words) read?
The solubility in water was “only sparingly soluble in water”.

For C=C1C[C@@]23CC[C@H]4[C@@](C)(CCC[C@@]4(C)C(=O)O[C@@H]4O[C@H](CO)[C@@H](O)[C@H](O)[C@H]4O[C@@H]4O[C@H](CO)[C@@H](O)[C@H](O)[C@H]4O)[C@@H]2CC[C@]1(O[C@@H]1O[C@H](CO)[C@@H](O)[C@H](O[C@@H]2O[C@H](CO)[C@@H](O)[C@H](O)[C@H]2O)[C@H]1O[C@@H]1O[C@H](CO)[C@@H](O)[C@H](O)[C@H]1O)C3 [Reb D, Rebaudioside D], which “temperature of apparent decomposition (large endothermic event)” value [2] is on record?
The value was “about 260 °C”.

What about the “decomposition by HPLC” value ([3]; after two hours at 70°, 80°, 90° and 100° C.) of the same molecule?
The value was “little to no decomposition”.

And the “Net Loss (weight %)” value ([3]; 70° C.)?
The value was 0.38 weight %.

And the “Net Loss” value ([3]; 70° C.)?
Its value is 0.19 g.

And the “Net Loss (weight %)” value ([3]; 80° C.)?
The value was 0.48 weight %.

What about the “Net Loss” value ([3]; 80° C.) of the same molecule?
The value was 0.24 g.

What about the “Net Loss (weight %)” value ([3]; 90° C.) of the same molecule?
Its value is 0.76 weight %.

What about the “Net Loss” value ([3]; 90° C.) of the same molecule?
The value was 0.38 g.

And the “Net Loss (weight %)” value ([3]; 100° C.)?
The value was 1.36 weight %.

What about the “Net Loss” value ([3]; 100° C.) of the same molecule?
The value was 0.68 g.

And the “behaviour of heated solution upon cooling” value (cooled to room temperature (e.g., 25° C.))?
Its value is “precipitates back out of solution within a few hours”.

And the “stable solubility in aqueous solution” value (room temperature)?
Its value is “no more than 450 ppm”.

What about the precipitation after cooling ([4]; dissolved in water with heating and allowed to cool) of the same molecule?
Its precipitation after cooling is “precipitating out of solution within a number of hours”.

And the “appearance of water solution” value ([5]; listed as Reb D hydrate)?
Its value is “full of precipitate”.

And the “decomposition temperature (large loss of mass)” value [6]?
The value was “approximately 260 °C”.

With C=C1C[C@@]23CC[C@H]4[C@@](C)(CCC[C@@]4(C)C(=O)O[C@@H]4O[C@H](CO)[C@@H](O)[C@H](O)[C@H]4O[C@@H]4O[C@H](CO)[C@@H](O)[C@H](O)[C@H]4O)[C@@H]2CC[C@]1(O[C@@H]1O[C@H](CO)[C@@H](O)[C@H](O[C@@H]2O[C@H](CO)[C@@H](O)[C@H](O)[C@H]2O)[C@H]1O[C@@H]1O[C@H](CO)[C@@H](O)[C@H](O)[C@H]1O)C3 [anhydrous Reb D, Rebaudioside D] as the molecule, how does the “decomposition by HPLC retention values” [7] read?
The value was “no significant level of decomposition”.

And the “impurity at the 14.1 minute elution mark” value ([7]; FIG. 6)?
The value was “about 5 % of the total mass”.

What about the decomposition peak ([7]; FIG. 7) of the same molecule?
Its decomposition peak is ~2 % of the total mass.

And the “time at room temperature with no precipitating out of solution” value ([4]; 3000 ppm solution after cooling)?
Its value is “at least 24 hours”.

What about the solution concentration ([4]; dissolved in water with heating, cooled to room temperature) of the same molecule?
The solution concentration was 3000 ppm.

What about the “appearance of water solution” value [5] of the same molecule?
The value was “stayed as a clear solution”.

For C=C1C[C@@]23CC[C@H]4[C@@](C)(CCC[C@@]4(C)C(=O)O[C@@H]4O[C@H](CO)[C@@H](O)[C@H](O)[C@H]4O)[C@@H]2CC[C@]1(O[C@@H]1O[C@H](CO)[C@@H](O)[C@H](O[C@@H]2O[C@H](CO)[C@@H](O)[C@H](O)[C@H]2O)[C@H]1O[C@@H]1O[C@H](CO)[C@@H](O)[C@H](O)[C@H]1O)C3 [Reb A, Rebaudioside A], which “solubility in aqueous solution” value ([1]; room temperature) is on record?
Its value is “at least 3000 ppm”.
